Experimental data as given in US10131652B2, “Pyrimidinyloxy benzene derivatives as herbicides” (E. I. DU PONT DE NEMOURS AND COMPANY, priority 2014, dated 2018).

Assays:
Type in all cases: in vivo
[1] = system: velvetleaf (Abutilon theophrasti); assay: Test B pre-/postemergence plant response
Procedure, shortened: (§1)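 Steps: plant seeds in loam soil–sand mix; spray soil preemergence, and in parallel spray 2–10 cm one- to two-leaf plants postemergence; hold ~10 days in greenhouse; visually rate injury against untreated controls (0 = no effect, 100 = complete control).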

[2] = system: pigweed (Amaranthus retroflexus); assay: Test B pre-/postemergence plant response
Procedure, shortened: as §1

[3] = system: wheat (Triticum aestivum); assay: Test B pre-/postemergence plant response
Procedure, shortened: as §1

[4] = system: morningglory (Ipomoea spp.); assay: Test B pre-/postemergence plant response
Procedure, shortened: as §1

[5] = system: large (Lg) crabgrass (Digitaria sanguinalis); assay: Test B pre-/postemergence plant response
Procedure, shortened: as §1

[6] = system: barnyardgrass (Echinochloa crus-galli); assay: Test B pre-/postemergence plant response
Procedure, shortened: as §1

corn (Zea mays) = assay: Test B pre-/postemergence plant response
Procedure, shortened: as §1

[7] = system: giant foxtail (Setaria faberii); assay: Test B pre-/postemergence plant response
Procedure, shortened: as §1

rice (Oryza sativa) = assay: Test C flooded paddy test plant response; details: Flood, 250 g ai/ha; scale of 0 to 100 where 0 is no effect and 100 is complete control; 13 to 15 days
Procedure, shortened: (§2)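 Water-applied treatment: compounds go directly into floodwater standing 3 cm over the soil of pots holding 2-leaf-stage plants. Depth is kept constant; plants stay in a greenhouse 13 to 15 days before visual comparison with controls on a 0–100 scale.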

[8] = system: barnyardgrass (Echinochloa crus-galli); assay: Test C flooded paddy test plant response; details: Flood, 250 g ai/ha; scale of 0 to 100 where 0 is no effect and 100 is complete control; 13 to 15 days
Procedure, shortened: as §2

[9] = system: ducksalad (Heteranthera limosa); assay: Test C flooded paddy test plant response; details: Flood, 250 g ai/ha; scale of 0 to 100 where 0 is no effect and 100 is complete control; 13 to 15 days
Procedure, shortened: as §2

[10] = system: small-flower umbrella sedge (Cyperus difformis); assay: Test C flooded paddy test plant response; details: Flood, 250 g ai/ha; scale of 0 to 100 where 0 is no effect and 100 is complete control; 13 to 15 days
Procedure, shortened: as §2

[11] = Postemergence, 1000 g ai/ha, 0 to 100 scale (0 no effect, 100 complete control)
[12] = Preemergence, 1000 g ai/ha, 0 to 100 scale (0 no effect, 100 complete control)
[13] = 125 g ai/ha, postemergence, 0 to 100 scale, 0 no effect, 100 complete control
[14] = Postemergence, 500 g ai/ha, 0 to 100 scale (0 no effect, 100 complete control)
[15] = Preemergence, 125 g ai/ha, 0 to 100 scale where 0 is no effect and 100 is complete control
[16] = Preemergence, 500 g ai/ha, 0 to 100 scale where 0 is no effect and 100 is complete control
[17] = 500 g ai/ha, postemergence, 0 to 100 scale, 0 no effect, 100 complete control
[18] = Preemergence, 125 g ai/ha, 0 to 100 scale (0 no effect, 100 complete control)

| SMILES | Rice plant response rating (rice (Oryza sativa)) | Barnyardgrass plant response rating [8] | Ducksalad plant response rating [9] | Sedge, Umbrella plant response rating [10] | Plant response rating, Velvetleaf [1, 13] | Plant response rating, Velvetleaf [1, 16] | Plant response rating, Pigweed [2, 13] | Plant response rating, Pigweed [2, 16] | Plant response rating, Wheat [3, 13] | Plant response rating, Wheat [3, 16] | Plant response rating, Morningglory [4, 13] | Plant response rating, Morningglory [4, 16] | Plant response rating, Crabgrass, Large [5, 13] | Plant response rating, Crabgrass, Large [5, 16] | Plant response rating, Barnyardgrass [6, 13] | Plant response rating, Barnyardgrass [6, 16] | Plant response rating, Corn (corn (Zea mays); [13]) | Plant response rating, Corn (corn (Zea mays); [16]) | Plant response rating, Foxtail, Giant [7, 13] | Plant response rating, Foxtail, Giant [7, 16] | further results |
| --- | --- | --- | --- | --- | --- | --- | --- | --- | --- | --- | --- | --- | --- | --- | --- | --- | --- | --- | --- | --- | --- |
| Fc1cccc(Oc2ncc(Cl)cn2)c1-c1cccc(OC(F)(F)F)c1 [Compound 46] | 35 | 20 | 60 | 50 | – | – | – | – | – | – | – | – | – | – | – | – | – | – | – | – | Plant response rating, Velvetleaf [1, 11]: 100; Plant response rating, Velvetleaf [1, 12]: 20; Plant response rating, Pigweed [2, 11]: 100; Plant response rating, Pigweed [2, 12]: 100; Plant response rating, Wheat [3, 11]: 20; Plant response rating, Wheat [3, 12]: 10; Plant response rating, Morningglory [4, 11]: 70; Plant response rating, Morningglory [4, 12]: 10; Plant response rating, Crabgrass, Large [5, 11]: 100; Plant response rating, Crabgrass, Large [5, 12]: 100; Plant response rating, Barnyardgrass [6, 11]: 90; Plant response rating, Barnyardgrass [6, 12]: 80; Plant response rating, Corn (corn (Zea mays); [11]): 20; Plant response rating, Corn (corn (Zea mays); [12]): 0; Plant response rating, Foxtail, Giant [7, 11]: 100; Plant response rating, Foxtail, Giant [7, 12]: 100 |
| FC(F)(F)c1ccc(-c2ccccc2Oc2ncc(Br)cn2)nc1 [Compound 28] | 0 | 0 | 0 | 0 | 40 | 60 | 30 | 80 | 0 | 0 | 0 | 0 | 20 | 100 | 0 | 60 | 0 | 0 | 20 | 90 | Plant response rating, Velvetleaf [1, 14]: 100; Plant response rating, Velvetleaf [1, 15]: 0; Plant response rating, Pigweed [2, 14]: 100; Plant response rating, Pigweed [2, 15]: 40; Plant response rating, Wheat [3, 14]: 0; Plant response rating, Wheat [3, 15]: 0; Plant response rating, Morningglory [4, 14]: 30; Plant response rating, Morningglory [4, 15]: 0; Plant response rating, Crabgrass, Large [5, 14]: 40; Plant response rating, Crabgrass, Large [5, 15]: 40; Plant response rating, Barnyardgrass [6, 14]: 50; Plant response rating, Barnyardgrass [6, 15]: 0; Plant response rating, Corn (corn (Zea mays); [14]): 20; Plant response rating, Corn (corn (Zea mays); [15]): 0; Plant response rating, Foxtail, Giant [7, 14]: 40; Plant response rating, Foxtail, Giant [7, 15]: 30 |
| N#Cc1cccc(-n2cc(Br)cn2)c1Oc1ncc(Cl)cn1 [Compound 209] | 0 | 0 | 0 | 0 | 30 | 0 | 90 | 100 | 0 | 0 | 30 | 0 | 10 | 100 | 0 | 10 | 0 | 0 | 0 | 100 | Plant response rating, Velvetleaf [1, 17]: 30; Velvetleaf plant response rating [1, 18]: 0; Plant response rating, Pigweed [2, 17]: 100; Pigweed plant response rating [2, 18]: 90; Plant response rating, Wheat [3, 17]: 0; Wheat plant response rating [3, 18]: 0; Plant response rating, Morningglory [4, 17]: 30; Morningglory plant response rating [4, 18]: 0; Plant response rating, Crabgrass, Large [5, 17]: 30; Crabgrass, Large plant response rating [5, 18]: 70; Plant response rating, Barnyardgrass [6, 17]: 0; Barnyardgrass plant response rating [6, 18]: 0; Plant response rating, Corn (corn (Zea mays); [17]): 0; Corn plant response rating (corn (Zea mays); [18]): 0; Plant response rating, Foxtail, Giant [7, 17]: 30; Foxtail, Giant plant response rating [7, 18]: 30 |
| Fc1cnc(Oc2ccccc2-c2cc(C(F)(F)F)on2)nc1 [Compound 206] | 0 | 0 | 70 | 70 | 30 | 40 | 40 | 80 | 0 | 0 | 20 | 0 | 10 | 60 | 0 | 30 | 0 | 0 | 0 | 60 | Plant response rating, Velvetleaf [1, 17]: 60; Velvetleaf plant response rating [1, 18]: 30; Plant response rating, Pigweed [2, 17]: 70; Pigweed plant response rating [2, 18]: 50; Plant response rating, Wheat [3, 17]: 0; Wheat plant response rating [3, 18]: 0; Plant response rating, Morningglory [4, 17]: 30; Morningglory plant response rating [4, 18]: 0; Plant response rating, Crabgrass, Large [5, 17]: 20; Crabgrass, Large plant response rating [5, 18]: 10; Plant response rating, Barnyardgrass [6, 17]: 10; Barnyardgrass plant response rating [6, 18]: 0; Plant response rating, Corn (corn (Zea mays); [17]): 0; Corn plant response rating (corn (Zea mays); [18]): 0; Plant response rating, Foxtail, Giant [7, 17]: 20; Foxtail, Giant plant response rating [7, 18]: 10 |
